Measurements published in US20170291905A1, “ARGININE […] INHIBITORS AND USES THEREOF” (Epizyme, Inc., priority 2014, published 2017).

target: full-length human PRMT6 (Flag- and His-tagged) (Homo sapiens, UniProt Q96LA8); test: PRMT6 biochemical assay (3H-SAM Flashplate, histone H4 36-50 K44me1 peptide); settings: 1 nM PRMT6, 30 min preincubation, 75 nM peptide
From the text: S-adenosylmethionine (SAM), S-adenosylhomocysteine (SAH), bicine, Tween20, dimethylsulfoxide (DMSO), bovine skin gelatin (BSG), sodium butyrate and Tris(2-carboxyethyl)phosphine hydrochloride solution (TCEP) were purchased from Sigma-Aldrich at the highest level of purity possible. ^3H-SAM was purchase from American Radiolabeled Chemicals with a specific activity of 80 Ci/mmol. 384-well streptavidin Flashplates were purchased from PerkinElmer.
Peptide representative of human histone H4 residues 36-50 was synthesized with an N-terminal linker-affinity tag motif and a C-terminal amide cap by 21st Century Biochemicals. The peptide was purified by high-performance liquid chromatography (HPLC) to greater than 95% purity and confirmed by liquid chromatography mass spectrometry (LC-MS). The sequence was Biot-Ahx-[…]-amide and contained a monomethylated lysine at position 44 (SEQ ID NO.:5).
Full-length human PRMT6 (NM_018137.2) transcript clone was amplified from an HEK 293 cDNA library, incorporating a flanking 5′ sequence encoding a FLAG tag ([…]) (SEQ ID NO.:6) fused directly to Ser 2 of PRMT6 and a 3′ sequence encoding a hexa His sequence (HHHHHH) (SEQ ID NO.: 17) fused directly to Asp 375. The amplified gene was subcloned into pFastBacMam (Viva Biotech).
Recombinant baculovirus were generated according to Bac-to-Bac kit instructions (Life Technologies). […] Infections were carried out at 37° C. for 48 hours, harvested by centrifugation, and stored at −80° C. for purification.
Column was washed with 20 mM imidazole in the same buffer and Flag-PRMT6-His was eluted with 150 mM imidazole. Pooled fractions were dialysed against buffer Ni-A and further purified by anti-flag M2 affinity chromatography. Flag-PRMT6-His was eluted with 200 ug/ml FLAG peptide in the same buffer. Pooled fractions were dialysed in 20 mM Tris, 150 mM NaCl, 10% glycerol and 5 mM β-mercaptoethanol, pH 7.8. The purity of recovered protein was 95%.
General Procedure for PRMT6 Enzyme Assays on Peptide Substrates.
The assays were all performed in a buffer consisting of 20 mM Bicine (pH=7.6), 1 mM TCEP, 0.005% BSG, and 0.002% Tween 20, prepared on the day of use. Compounds in 100% DMSO (1 ul) were spotted into a polypropylene 384-well V-bottom plates (Greiner) using a Platemate Plus outfitted with a 384-channel head (Thermo Scientific). DMSO (1 ul) was added to Columns 11, 12, 23, 24, rows A-H for the maximum signal control and 1 ul of SAH, a known product and inhibitor of PRMT6, was added to columns 11, 12, 23, 24, rows I-P for the minimum signal control. A cocktail (40 ul) containing the PRMT6 enzyme was added by Multidrop Combi (Thermo-Fisher). The compounds were allowed to incubate with PRMT6 for 30 min at room temperature, then a cocktail (10 ul) containing SAM and peptide was added to initiate the reaction (final volume=51 ul). The final concentrations of the components were as follows: PRMT6 was 1 nM, ^3H-SAM was 200 nM, non-radiolabeled SAM was 250 nM, peptide was 75 nM, SAH in the minimum signal control wells was 1 mM, and the DMSO concentration was 2%. The assays were stopped by the addition of non-radiolabeled SAM (10 ul) to a final concentration of 400 uM, which dilutes the ^3H-SAM to a level where its incorporation into the peptide substrate is no longer detectable. 50 ul of the reaction in the 384-well polypropylene plate was then transferred to a 384-well Flashplate and the biotinylated peptides were allowed to bind to the streptavidin surface for at least 1 hour before being washed once with 0.1% Tween20 in a Biotek ELx405 plate washer. The plates were then read in a PerkinElmer TopCount plate reader to measure the quantity of ^3H-labeled peptide bound to the Flashplate surface, measured as disintegrations per minute (dpm) or alternatively, referred to as counts per minute (cpm).
Where dpm=disintegrations per minute, cmpd=signal in assay well, and min and max are the respective minimum and maximum signal controls. […]

full-length human PRMT6 (Flag- and His-tagged), sequence (Q96LA8 with tags, fused parts or gaps): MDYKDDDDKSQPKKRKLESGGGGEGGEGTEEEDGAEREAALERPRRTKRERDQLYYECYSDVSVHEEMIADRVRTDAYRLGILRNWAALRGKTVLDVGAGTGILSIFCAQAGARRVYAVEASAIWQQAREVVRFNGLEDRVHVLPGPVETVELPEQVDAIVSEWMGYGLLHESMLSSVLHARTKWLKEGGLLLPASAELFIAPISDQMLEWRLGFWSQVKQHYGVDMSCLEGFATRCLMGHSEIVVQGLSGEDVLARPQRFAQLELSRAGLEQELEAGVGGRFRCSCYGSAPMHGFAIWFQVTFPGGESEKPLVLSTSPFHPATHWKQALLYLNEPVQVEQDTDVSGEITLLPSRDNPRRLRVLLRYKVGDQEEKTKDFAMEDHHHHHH

Q: For `CNCCN(C)Cc1cncn1[C@H]1CC[C@]2(CC1)CC(C)(C)CO2` [compound 98], which IC50 is on record?
A: 2790 nM

Q: For `CNCCN(C)Cc1n[nH]cc1[C@H]1CC[C@]2(CC1)CC(C)(C)CO2` [compound 116], which IC50 is on record?
A: 134 nM

Q: Which IC50 does the source give for `CNCCN(C)Cc1c(C)noc1[C@H]1CC[C@]2(CC1)CC(C)(C)CO2` [compound 114] here?
A: 2080 nM

Q: How did the IC50 turn out when `CN(CCN)Cc1c[nH]nc1[C@H]1CC[C@@]2(CC1)CC(C)(C)CO2` [compound 105] was run?
A: 18.5 nM

Q: For `CNCCN(C)Cc1c[nH]nc1C1C[C@@H](C(=O)N(C)CC(C)C)C(C)(C)[C@H](C(=O)N(C)CC(C)C)C1` (stereo partly shown) [compound 12], which IC50 is on record?
A: > 10000 nM

Q: For `CNCCN(C)Cc1sc(C)nc1[C@H]1CC[C@]2(CC1)CC(C)(C)CO2` [compound 100], which IC50 is on record?
A: 389 nM

Q: How did the IC50 turn out when `CNCCN(C)Cc1c[nH]nc1[C@H]1CC[C@@H](COCC(F)(F)F)CC1` [compound 23, N1,N2-dimethyl-N1-((3-((1s,4s)-4-((2,2,2-trifluoroethoxy)methyl)cyclohexyl)-1H-pyrazol-4-yl)methyl)ethane-1,2-diamine] was run?
A: 78.5 nM

Q: For `CNCCN(C)Cc1c[nH]nc1[C@H]1CC[C@@]2(CCCCO2)CC1` [compound 3], which IC50 is on record?
A: 27.7 nM

Q: For `CNCCN(C)Cc1nccn1[C@H]1CC[C@]2(CC1)CC(C)(C)CO2` [compound 91], which IC50 is on record?
A: > 10000 nM

Q: With `CCOCC1(COCC)CCC(c2nn(C)cc2CN(C)CCNC)CC1` [compound 122] as the molecule, how does the IC50 read?
A: 42.7 nM

Q: For `CNCCN(C)Cc1nccn1[C@H]1CC[C@@]2(CC1)CC(C)(C)CO2` [compound 69], which IC50 is on record?
A: 8040 nM

Q: Which IC50 does the source give for `CNCCN(C)Cc1c[nH]nc1C1=CCC(CF)(CF)CC1` [compound 15, N-((3-(4,4-bis(fluoromethyl)cyclohex-1-en-1-yl)-1H-pyrazol-4-yl)methyl)-N1,N2-dimethylethane-1,2-diamine] here?
A: 16.7 nM

Q: Which IC50 does the source give for `CN(CCN)Cc1nn(C)cc1[C@H]1CC[C@@]2(CC1)CC(C)(C)CO2` [compound 80] here?
A: 345 nM

Q: With `CCOC[C@@H]1CC(c2n[nH]cc2CN(C)CCNC)CCC1(C)C` (stereo partly drawn) [compound 31, {2-[({3-[(3R)-3-(ethoxymethyl)-4,4-dimethylcyclohexyl]-1H-pyrazol-4-yl}methyl)(methyl)amino]ethyl}(methyl)amine] as the molecule, how does the IC50 read?
A: 45.6 nM

Q: `CNCCN(C)Cc1nc(C)sc1[C@H]1CC[C@]2(CC1)CC(C)(C)CO2` [compound 99] was tested. Which IC50 did it give?
A: 317 nM

Q: Which IC50 does the source give for `CNCCN(C)Cc1c[nH]nc1[C@@H]1CC[C@H](OCCCOC)C2(CCCC2)C1` (racemic) [compound 27, N1-((3-((7R,10S)-10-(3-methoxypropoxy)spiro[4.5]decan-7-yl)-1H-pyrazol-4-yl)methyl)-N1,N2-dimethylethane-1,2-diamine] here?
A: 383 nM

Q: `CNCCN(C)Cc1c[nH]nc1[C@H]1CC[C@H](COCC(F)(F)F)CC1` [compound 24, N1,N2-dimethyl-N1-((3-((1r,4r)-4-((2,2,2-trifluoroethoxy)methyl)cyclohexyl)-1H-pyrazol-4-yl)methyl)ethane-1,2-diamine] was tested. Which IC50 did it give?
A: 21.6 nM

Q: Which IC50 does the source give for `CNCCN(C)Cc1c[nH]nc1[C@@H]1CC[C@@H](OCCCOC)C2(CCCC2)C1` (racemic) [compound 26, N1-((3-((7R,10R)-10-(3-methoxypropoxy)spiro[4.5]decan-7-yl)-1H-pyrazol-4-yl)methyl)-N1,N2-dimethylethane-1,2-diamine] here?
A: 107 nM

Q: `CNCCN(C)Cc1c[nH]nc1C1CCC(C)(C)[C@H](COCCCOC)C1` (stereo partly drawn) [compound 30, {2-[({3-[(3R)-3-[(3-methoxypropoxy)methyl]-4,4-dimethylcyclohexyl]-1H-pyrazol-4-yl}methyl)(methyl)amino]ethyl}(methyl)amine] was tested. Which IC50 did it give?
A: 60.3 nM

Q: How did the IC50 turn out when `CNCCN(C)Cc1c[nH]nc1[C@H]1CC[C@]2(CCN(CCC(C)C)C2=O)CC1` [compound 10] was run?
A: 38.5 nM

Q: `CNCCN(C)Cc1c[nH]nc1C1CCC(C)(C)[C@H](CO)C1` (stereo partly drawn) [compound 32, [(1R)-2,2-dimethyl-5-[4-({methyl[2-(methylamino)ethyl]amino}methyl)-1H-pyrazol-3-yl]cyclohexyl]methanol] was tested. Which IC50 did it give?
A: 16.3 nM

Q: `CNCCN(C)Cc1nn(C)nc1[C@H]1CC[C@@]2(CC1)CC(C)(C)CO2` [compound 64] was tested. Which IC50 did it give?
A: 208 nM

Q: How did the IC50 turn out when `CNCCN(C)Cc1nncn1[C@H]1CC[C@]2(CC1)CC(C)(C)CO2` [compound 90] was run?
A: > 10000 nM

Q: Which IC50 does the source give for `CCN(C)C(=O)C1CC(c2n[nH]cc2CN(C)CCNC)CC(C(=O)NCCC(C)C)C1(C)C` (stereo not shown) [compound 14, N1-ethyl-N3-isopentyl-N1,2,2-trimethyl-5-(4-((methyl(2-(methylamino)ethyl)amino)methyl)-1H-pyrazol-3-yl)cyclohexane-1,3-dicarboxamide] here?
A: > 10000 nM

Q: Which IC50 does the source give for `CNCCN(C)Cc1c[nH]nc1C1CCC2(CC1)CC(C)(C)OC2=O` (stereo not shown) [compound 125] here?
A: 17.4 nM

Q: Which IC50 does the source give for `CNCCN(C)Cc1ncsc1[C@H]1CC[C@@]2(CC1)CC(C)(C)CO2` [compound 83] here?
A: 62.7 nM

Q: Which IC50 does the source give for `CNCCN(C)Cc1c[nH]nc1[C@H]1CC[C@@]2(CCN(CCC(C)C)C2=O)CC1` [compound 11, (5r,8r)-2-isopentyl-8-(4-((methyl(2-(methylamino)ethyl)amino)methyl)-1H-pyrazol-3-yl)-2-azaspiro[4.5]decan-1-one] here?
A: 18.6 nM

Q: How did the IC50 turn out when `CNCCN(C)Cc1scnc1[C@H]1CC[C@@]2(CC1)CC(C)(C)CO2` [compound 62] was run?
A: 18.3 nM

Q: For `CNCCN(C)Cc1nnc(C)n1[C@H]1CC[C@]2(CC1)CC(C)(C)CO2` [compound 93], which IC50 is on record?
A: > 10000 nM

Q: With `CNCCN(C)Cc1c[nH]nc1C1C[C@H](C(=O)NCCOC)C(C)(C)[C@H](C(=O)NCCOC)C1` (stereo partly shown) [compound 13] as the molecule, how does the IC50 read?
A: > 10000 nM

Q: Which IC50 does the source give for `CNCCN(C)Cc1c[nH]nc1[C@H]1CC[C@@]2(CC1)COC(C)(C)C2` [compound 126, N1-((3-((5r,8r)-3,3-dimethyl-2-oxaspiro[4.5]decan-8-yl)-1H-pyrazol-4-yl)methyl)-N1,N2-dimethylethane-1,2-diamine] here?
A: 39.9 nM

Q: Which IC50 does the source give for `CCOCC1(COCC)CCC(c2n[nH]cc2CN(C)CCN)CC1` [compound 123] here?
A: 16.7 nM

Q: With `CNCCN(C)Cc1nocc1[C@H]1CC[C@]2(CC1)CC(C)(C)CO2` [compound 118] as the molecule, how does the IC50 read?
A: 3530 nM

Q: With `CN(CCN)Cc1c[nH]nc1[C@H]1CC[C@]2(CC1)CC(C)(C)CO2` [compound 106] as the molecule, how does the IC50 read?
A: 12.8 nM

Q: With `CCCOCC1(COCCC)CCC(c2n[nH]cc2CN(C)CCNC)CC1` [compound 36, N^1-((3-(4,4-bis(propoxymethyl)cyclohexyl)-1H-pyrazol-4-yl)methyl)-N^1,N^2-dimethylethane-1,2-diamine] as the molecule, how does the IC50 read?
A: 14.9 nM

Q: Which IC50 does the source give for `CNCCN(C)Cc1c[nH]nc1C1CCC(C)(C)[C@H](COCCOC)C1` (stereo partly drawn) [compound 35, {2-[({3-[(3R)-3-[(2-methoxyethoxy)methyl]-4,4-dimethylcyclohexyl]-1H-pyrazol-4-yl}methyl)(methyl)amino]ethyl}(methyl)amine] here?
A: 124 nM

Q: Which IC50 does the source give for `CNCCN(C)Cc1nn(C)cc1[C@H]1CC[C@@]2(CC1)CC(C)(C)CO2` [compound 81] here?
A: 123 nM

Q: `CNCCNCc1c[nH]nc1[C@H]1CC[C@@]2(CC1)CC(C)(C)CO2` [compound 28, N1-((3-((5s,8s)-3,3-dimethyl-1-oxaspiro[4.5]decan-8-yl)-1H-pyrazol-4-yl)methyl)-N2-methylethane-1,2-diamine] was tested. Which IC50 did it give?
A: 262 nM

Q: With `CCC1(CC)CC2(CCC(c3n[nH]cc3CN(C)CCNC)CC2)N(C)C1=O` (stereo not shown) [compound 22, 3,3-diethyl-1-methyl-8-(4-((methyl(2-(methylamino)ethyl)amino)methyl)-1H-pyrazol-3-yl)-1-azaspiro[4.5]decan-2-one] as the molecule, how does the IC50 read?
A: 62.7 nM

Q: `CNCCN(C)Cc1c[nH]nc1C1CCC(C)(C)[C@H](OCC(C)C)C1` (stereo partly drawn) [compound 20, ({3-[(3R)-4,4-dimethyl-3-(2-methylpropoxy)cyclohexyl]-1H-pyrazol-4-yl}methyl)(methyl)[2-(methylamino)ethyl]amine] was tested. Which IC50 did it give?
A: 74.8 nM
